Test results: patent US20260007651A1, “Effect of YEL002 on Conditions and Diseases” (RadMit, Inc., priority 2022, published 2026)

Assays:
lymphoma = assay: Lymphoma incidence in mice (National Institute of Health experiment); format: in vivo; conditions: radiation exposure caused 90% to develop lymphoma without treatment
Procedure: This was observed after treating mice right after birth, if humans are treated later in life it is possible that only 10 or 5 years are added and probably more for DNA repair deficient diseases like ataxia telangiectasia (ATM) which is still very substantial.

[1] = Patient testimonial: elevated levels of liver damage; format: in vivo, human; conditions: after two days of treatment; twice elevated for 25 years before
[2] = Patient testimonial: nose spray in oil, allergic attacks; format: in vivo, human; conditions: dissolved in oil, nose spray 2-4 times a day
From the text: According to another patient testimonial, one subject dissolved YEL002 in oil and used that oil to spray their nose 2-4 times a day.

[3] = system: mice irradiated with an LD100; assay: Radiation mitigation: survival of mice irradiated with an LD100; format: in vivo
Procedure: There were 10 primary hits and 6 confirmed hits and 2 of them were used in mice. Mice were irradiated with an LD100 after which 100% of the mice died after 10 to 15 days. When the researchers injected YEL002 IP into the irradiated mice 24 hours after radiation and another four doses in 24 hours intervals 100% of the mice, so all mice which would otherwise have died survived which was a highly significant difference. Many lived a normal life span of more than 2 years which is interesting since other labs which isolated other compounds their mice died of late radiation effects much earlier.

[4] = Patient testimonial: heavy smoker, smoker's leg and hair loss; format: in vivo, human; conditions: one week after treatment
From the text: According to another patient testimonial, one subject was a heavy smoker and they had all kinds of inflammation problems including smoker's leg which were oozing lymph liquid and could not heal for many years.

Solubility / appearance = format: physicochemical
Procedure: The compound takes the appearance of an off-white powder and is fat soluble. One takes a quarter teaspoon or about 0.5 g dissolved in a couple of teaspoons of oil. In an exemplary embodiment, it is dissolved in grape seed oil and taken twice a day, once in the morning and once in the evening. It is easy to use and has almost no taste.

ATM-deficient mice = assay: Lifespan of ATM-deficient mice injected weekly; format: in vivo; conditions: ATM-deficient mice injected every week during most of their lifespans
human keratinocytes = assay: Proteomics study of induced proteins; format: cell-based
From the text: In terms of mechanism of action in a proteomics study, the chemical was capable of inducing 244 different proteins in human keratinocytes, which comprised anti-inflammatory proteins, a number of DNA repair proteins, and even some neuroprotective proteins. It is known that turtles at the Galapagos Islands live 150 or more years without cancer and have multiple copies of DNA repair genes and anti-inflammatory genes. The compound boosts the expression of these genes in mammals. Since it induces DNA repair and is anti-inflammatory, it may be possible to prevent and cure many diseases and extend the life. In addition, patients are using the compound to try to treat Alzheimer's, multiple sclerosis, alopecia, diabetes, to prevent prostate cancer, to increase testosterone level, etc. People report feeling more energetic, less tired, and less combative and become nicer.

[5] = Patient testimonial: subject post-chemotherapy, coughing and wheezing; format: in vivo, human; conditions: one hour after treatment
From the text: According to another patient testimonial, one subject post-chemotherapy had coughing and wheezing symptoms and went downhill very fast and their child was worried that they were dying.

[6] = system: three different cancer cell lines; assay: Radiation killing of cancer cell lines; format: cell-based
[7] = Patient testimonial: veins and blood; conditions: human, in vivo
From the text: His blood is thinner, since proinflammatory factors make platelets sticky and cause blood clots. Thus, it prevents or treats blood clots.

[8] = User study: periodontics or receding gums; design: species or system human; conditions: in vivo
From the text: In a user study, the patient's periodontics or receding gums were healed and no longer needed to floss teeth as much, since the teeth are now perfectly aligned and close together without a space in between.

[9] = Case study, eight weeks of use (coughing, diarrhea); format: in vivo, human; conditions: used for eight weeks
From the text: It has also beneficial effects on the skin and one needs less of a cosmetic cream containing the same compound.

[10] = Eye sight, eye exam in an ophthalmology office; format: in vivo, human
Procedure: The patient also observed no longer needing eyeglasses after 55 years of wearing them, and after 4 weeks with the drug, the subject can see much better than anybody their age. According to the patient, the compound fixed 2 diopters and 1 astigmatism of eye sight deficiency in only 4 weeks. An eye exam was conducted in an ophthalmology office. […] In every subject using the chemical the eye background is completely green, because YEL002 benefits the retina and optic nerve.

Side effects observed = conditions: in vivo
From the text: It is also observed that three different cancer cell lines were not protected from radiation killing by YEL002, which indicates a use in radiation oncology or chemotherapy where the tumor can still be killed by the radiation, or chemotherapy but YEL002 protects the rest of the body from radiation or chemotherapy damage, and inhibits secondary carcinogenesis.

[11] = Patient testimonial: subject on chemotherapy; format: in vivo, human; conditions: one week on YEL002, subject on chemotherapy
From the text: They are extremely happy and all their doctors are happy too and told them that they need to continue their experimental therapy.

COc1ccc2cc(-c3nc4ccc(C)cn4c3NCc3ccco3)c(=O)[nH]c2c1 [YEL002]
lymphoma incidence after radiation exposure (lymphoma): 40% | levels of liver damage [1]: normal and below the cutoff | allergic attacks such as sneezing and runny nose [2]: completely prevented all allergic attacks | mice survived ([3]; LD100 irradiation, IP 24 hours after radiation and another four doses in 24 hours intervals, without treatment 100% died after 10 to 15 days): 100% | life span of surviving irradiated mice ([3]; many of the surviving mice): more than 2 years | hair loss [4]: completely stopped | smoker's leg condition [4]: completely healed | solubility (Solubility / appearance): fat soluble | lived longer than without injections (ATM-deficient mice): 33% | number of different proteins induced (human keratinocytes; human keratinocytes, anti-inflammatory, DNA repair and neuroprotective proteins): 244 | number of neuroprotective functions induced (human keratinocytes; proteomics): 9 | coughing and wheezing symptoms [5]: completely alleviated | protection of cancer cell lines from radiation killing [6]: not protected | blood [7]: thinner | varicose and spider veins [7]: fixes varicose and spider veins | periodontics or receding gums [8]: healed | symptoms of coughing and diarrhea [9]: reduced symptoms of coughing and diarrhea | need for eyeglasses ([10]; another subject who had 6 diopters): does not require eyeglasses any longer | eye sight deficiency fixed, astigmatism ([10]; in 4 weeks): 1 astigmatism | eye sight deficiency fixed, diopters ([10]; in 4 weeks): 2 diopters | side effects (Side effects observed): no side effects | body weight gained [11]: 2 kg | vomiting [11]: completely stopped
